Measurements published in ChEMBL document CHEMBL1201862, “PubChem BioAssay data set” (2004).
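Briefly, cells in 96-well plates were exposed to five compound concentrations for 48 h, and endpoints were estimated by linear interpolation. Here, GI50 denotes the concentration required for 50% inhibition of growth.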 Active and inactive are the calls of the source. No stated cut-off is given here; in the data, active = GI50 up to about 1.1 µM and inactive = higher.

Columns and labels:
Assay in all cases: NCI-60 cell line screen, 48 h
UACC-257 = test system: UACC-257
HOP-62 = test system: HOP-62
MDA-N = test system: MDA-N
SF-295 = test system: SF-295
SK-MEL-28 = test system: SK-MEL-28
HL-60 = test system: HL-60
SW-620 = test system: SW-620
NCI-H460 = test system: NCI-H460
SK-OV-3 = test system: SK-OV-3
PC-3 = test system: PC-3
NCI/ADR-RES = test system: NCI/ADR-RES
SNB-19 = test system: SNB-19
HCT-116 = test system: HCT-116
SF-539 = test system: SF-539
Malme-3M = test system: Malme-3M
SNB-75 = test system: SNB-75

Measured: GI50

CN(C)CCNCCN
inactive: UACC-257 > 100 µM | HOP-62 > 100 µM | MDA-N > 100 µM | SF-295 > 100 µM | SK-MEL-28 > 100 µM | HL-60 > 100 µM | SW-620 > 100 µM | NCI-H460 > 100 µM | SK-OV-3 > 100 µM | PC-3 > 100 µM | NCI/ADR-RES > 100 µM | SNB-19 > 100 µM | HCT-116 > 100 µM | SF-539 > 100 µM | Malme-3M > 100 µM

Cc1cc(C)c(O)c(Cc2cccc(Cc3cc(C)cc(C)c3O)c2O)c1
inactive: UACC-257 > 100 µM | HOP-62 > 100 µM | MDA-N > 100 µM | SF-295 > 100 µM | SK-MEL-28 > 100 µM | SW-620 > 100 µM | NCI-H460 > 100 µM | SK-OV-3 > 100 µM | PC-3 > 100 µM | NCI/ADR-RES > 100 µM | SNB-75 > 100 µM | SNB-19 > 100 µM | HCT-116 > 100 µM | SF-539 > 100 µM | Malme-3M > 100 µM

O=C(/C=C1\Nc2ccc([N+](=O)[O-])cc2N=C1NC12CC3CC(CC(C3)C1)C2)c1ccccc1
inactive: UACC-257 > 10 µM | HOP-62 > 10 µM | MDA-N > 10 µM | SF-295 > 10 µM | SK-MEL-28 > 10 µM | SW-620 > 10 µM | NCI-H460 > 10 µM | SK-OV-3 3.77 µM | PC-3 > 10 µM | NCI/ADR-RES > 10 µM | SNB-75 > 10 µM | SF-539 5.41 µM | Malme-3M > 10 µM

CCOC(=O)c1nc2cc(C(F)(F)F)ccc2nc1Nc1ccc(F)cc1
inactive: UACC-257 > 100 µM | HOP-62 96.6 µM | MDA-N > 100 µM | SF-295 47.2 µM | SK-MEL-28 > 100 µM | SW-620 74.1 µM | NCI-H460 18.2 µM | SK-OV-3 94.4 µM | PC-3 32.8 µM | NCI/ADR-RES 72.1 µM | SNB-75 58.2 µM | HCT-116 96.8 µM | SF-539 19.5 µM | Malme-3M > 100 µM

CC(=O)O[C@H]1[C@@H](OC2CCCC2(c2ccccc2)c2ccccc2)O[N+]([O-])=C[C@@H]1c1ccccc1 (stereo partly specified)
inactive: UACC-257 9.25 µM | HOP-62 16.6 µM | MDA-N 4.94 µM | SF-295 8.13 µM | SK-MEL-28 2.55 µM | HL-60 2.01 µM | SW-620 3.14 µM | NCI-H460 17.9 µM | SK-OV-3 14.5 µM | PC-3 8.24 µM | NCI/ADR-RES 5.42 µM | SNB-75 5.55 µM | SNB-19 15.6 µM | HCT-116 3.24 µM

O=C1/C(=C/c2ccco2)NC(=S)N1CN1CCCCC1
inactive: HOP-62 > 100 µM | MDA-N > 100 µM | SF-295 > 100 µM | SK-MEL-28 > 100 µM | SW-620 38.5 µM | SK-OV-3 > 100 µM | PC-3 > 100 µM | NCI/ADR-RES 10.5 µM | SNB-75 58.5 µM | SNB-19 22.6 µM | HCT-116 57.4 µM | Malme-3M 85.5 µM

Cn1c(=O)c2c(ncn2Cc2ccc(O)c([N+](=O)[O-])c2)n(C)c1=O
inactive: UACC-257 > 100 µM | HOP-62 > 100 µM | MDA-N > 100 µM | SF-295 > 100 µM | SK-MEL-28 > 100 µM | HL-60 > 100 µM | SW-620 > 100 µM | NCI-H460 > 100 µM | SK-OV-3 > 100 µM | PC-3 > 100 µM | NCI/ADR-RES > 100 µM | SNB-75 > 100 µM | SNB-19 > 100 µM | HCT-116 > 100 µM | SF-539 > 100 µM

CCC1(c2ccc(OC)c(OC)c2)CCN2C(=O)C(O)CC21 (stereo unspecified)
inactive: UACC-257 > 100 µM | HOP-62 > 100 µM | MDA-N > 100 µM | SF-295 > 100 µM | SK-MEL-28 > 100 µM | SW-620 > 100 µM | NCI-H460 > 100 µM | SK-OV-3 > 100 µM | PC-3 > 100 µM | NCI/ADR-RES > 100 µM | SNB-75 > 100 µM | SNB-19 > 100 µM | HCT-116 > 100 µM
